Experimental data: publication PMC9226124, “Macrocycle-stabilization of its interaction with 14-3-3 increases plasma membrane localization and activity of CFTR” (Nature Communications, 2022)
Like-named read-outs stand apart in the source and are kept apart here.

What was measured:
[1] = target: T1, 14-3-3β/CFTRpS753pS768 complex (Homo sapiens, UniProt P13569+P31946); test: Dose-response fluorescence polarization (FP) assay, compound titration; format: binding; conditions: for EC50: 14-3-3β 10 μM, labeled CFTRpS753pS768 100 nM; for FP signal: With 14-3-3
T1 construct: His6 (cleaved yes); made in house; peptide synthetic
Outline: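 Compounds were titrated in two-fold dilutions against 10 μM 14-3-3β and FITC-CFTR pS753pS768 peptide (100 nM or 10 nM). Buffer: 10 mM HEPES pH 7.4, 150 mM NaCl, 0.1% Tween20, 1 mg/mL BSA. Polarization was read at ex 485/em 535 nm, and EC50 was derived from a four-parameter variable-slope fit.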

[2] = target: T2, FITC-labeled CFTRpS753pS768 peptide (no 14-3-3) (Homo sapiens, UniProt P13569); test: Dose-response FP control assay in the absence of 14-3-3; format: binding; conditions: No 14-3-3
T2 construct: made in house; host or cells: synthetic peptide
Outline: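 Control run without 14-3-3: FITC-CFTR pS753/pS768 peptide (100 nM or 10 nM) with compound titrated in twofold dilutions in 10 mM HEPES pH 7.4, 150 mM NaCl, 0.1% Tween20, 1 mg/mL BSA. Fluorescence polarization read at ex 485/em 535 nm, background subtracted, n = 3. Curves fitted by four-parameter log(agonist) vs. response.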

T2 sequence (P13569 747-774 limits assumed): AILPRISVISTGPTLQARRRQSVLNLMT
T1 sequence (P31946 whole entry): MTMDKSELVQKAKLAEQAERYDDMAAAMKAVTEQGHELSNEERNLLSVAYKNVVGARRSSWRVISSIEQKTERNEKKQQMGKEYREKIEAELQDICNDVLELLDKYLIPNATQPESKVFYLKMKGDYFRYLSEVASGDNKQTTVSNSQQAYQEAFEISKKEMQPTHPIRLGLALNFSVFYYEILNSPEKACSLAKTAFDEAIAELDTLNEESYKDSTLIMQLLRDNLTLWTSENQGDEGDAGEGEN

## N=C(N)NCCCC1NC(=O)C(CCCCN)NCc2ccccc2Sc2ccccc2CNC(=O)C(Cc2ccc(O)cc2)NC1=O (stereo not drawn) [CY001951]
[1]; read-out: EC50
  EC50: 267 µM
[1]; compound 476.8 pM
  FP signal: 3
[1]; compound 953.7 pM
  FP signal: 3
[1]; compound 1.90735e-9 M
  FP signal: 4
[1]; compound 3.8147e-9 M
  FP signal: 4
[1]; compound 7.6294e-9 M
  FP signal: 3
[1]; compound 1.52588e-8 M
  FP signal: 5
[1]; compound 3.05176e-8 M
  FP signal: 4
[1]; compound 6.10352e-8 M
  FP signal: 5
[1]; compound 1.2207e-7 M
  FP signal: 4
[1]; compound 2.44141e-7 M
  FP signal: 4
[1]; compound 4.88281e-7 M
  FP signal: 5
[1]; compound 9.76563e-7 M
  FP signal: 6
[1]; compound 1.95313e-6 M
  FP signal: 6
[1]; compound 3.90625e-6 M
  FP signal: 6
[1]; compound 7.8125e-6 M
  FP signal: 7
[1]; compound 1.5625e-5 M
  FP signal: 9
[1]; compound 3.125e-5 M
  FP signal: 16
[1]; compound 6.25e-5 M
  FP signal: 33
[1]; compound 0.000125 M
  FP signal: 73
[1]; compound 0.00025 M
  FP signal: 143
[1]; compound 0.0005 M
  FP signal: 201
[1]; compound 0.001 M
  FP signal: 252
[2]; compound 476.8 pM
  FP signal: 3
[2]; compound 953.7 pM
  FP signal: 3
[2]; compound 1.90735e-9 M
  FP signal: 4
[2]; compound 3.8147e-9 M
  FP signal: 4
[2]; compound 7.6294e-9 M
  FP signal: 3
[2]; compound 1.52588e-8 M
  FP signal: 5
[2]; compound 3.05176e-8 M
  FP signal: 4
[2]; compound 6.10352e-8 M
  FP signal: 5
[2]; compound 1.2207e-7 M
  FP signal: 4
[2]; compound 2.44141e-7 M
  FP signal: 4
[2]; compound 4.88281e-7 M
  FP signal: 5
[2]; compound 9.76563e-7 M
  FP signal: 6
[2]; compound 1.95313e-6 M
  FP signal: 6
[2]; compound 3.90625e-6 M
  FP signal: 6
[2]; compound 7.8125e-6 M
  FP signal: 7
[2]; compound 1.5625e-5 M
  FP signal: 9
[2]; compound 3.125e-5 M
  FP signal: 16
[2]; compound 6.25e-5 M
  FP signal: 33
[2]; compound 0.000125 M
  FP signal: 73
[2]; compound 0.00025 M
  FP signal: 143
[2]; compound 0.0005 M
  FP signal: 201
[2]; compound 0.001 M
  FP signal: 252

## NCCCCC1NCc2ccccc2Sc2ccccc2CNC(=O)C(Cc2cccc(Cl)c2)NC(=O)C(Cc2ccc(O)cc2)NC1=O (stereo not drawn) [CY007288]
[1]
  EC50: False positive
[1]; compound 476.8 pM
  FP signal: 6
[1]; compound 953.7 pM
  FP signal: 6
[1]; compound 1.90735e-9 M
  FP signal: 5
[1]; compound 3.8147e-9 M
  FP signal: 4
[1]; compound 7.6294e-9 M
  FP signal: 7
[1]; compound 1.52588e-8 M
  FP signal: 6
[1]; compound 3.05176e-8 M
  FP signal: 5
[1]; compound 6.10352e-8 M
  FP signal: 4
[1]; compound 1.2207e-7 M
  FP signal: 4
[1]; compound 2.44141e-7 M
  FP signal: 5
[1]; compound 4.88281e-7 M
  FP signal: 6
[1]; compound 9.76563e-7 M
  FP signal: 6
[1]; compound 1.95313e-6 M
  FP signal: 5
[1]; compound 3.90625e-6 M
  FP signal: 8
[1]; compound 7.8125e-6 M
  FP signal: 9
[1]; compound 1.5625e-5 M
  FP signal: 16
[1]; compound 3.125e-5 M
  FP signal: 30
[1]; compound 6.25e-5 M
  FP signal: 55
[1]; compound 0.000125 M
  FP signal: 97
[1]; compound 0.00025 M
  FP signal: 149
[1]; compound 0.0005 M
  FP signal: 194
[1]; compound 0.001 M
  FP signal: 224
[2]; compound 476.8 pM
  FP signal: 6
[2]; compound 953.7 pM
  FP signal: 6
[2]; compound 1.90735e-9 M
  FP signal: 5
[2]; compound 3.8147e-9 M
  FP signal: 4
[2]; compound 7.6294e-9 M
  FP signal: 7
[2]; compound 1.52588e-8 M
  FP signal: 6
[2]; compound 3.05176e-8 M
  FP signal: 5
[2]; compound 6.10352e-8 M
  FP signal: 4
[2]; compound 1.2207e-7 M
  FP signal: 4
[2]; compound 2.44141e-7 M
  FP signal: 5
[2]; compound 4.88281e-7 M
  FP signal: 6
[2]; compound 9.76563e-7 M
  FP signal: 6
[2]; compound 1.95313e-6 M
  FP signal: 5
[2]; compound 3.90625e-6 M
  FP signal: 8
[2]; compound 7.8125e-6 M
  FP signal: 9
[2]; compound 1.5625e-5 M
  FP signal: 16
[2]; compound 3.125e-5 M
  FP signal: 30
[2]; compound 6.25e-5 M
  FP signal: 55
[2]; compound 0.000125 M
  FP signal: 97
[2]; compound 0.00025 M
  FP signal: 149
[2]; compound 0.0005 M
  FP signal: 194
[2]; compound 0.001 M
  FP signal: 224

## N=C(N)NCCCC1NC(=O)C(CCC(N)=O)NC(=O)C(CCCNC(=N)N)NC(=O)C2Cc3ccccc3CN2Cc2cccc(c2)-c2ccccc2CNC1=O (stereo not drawn) [CY007493]
[1]; read-out: EC50
  EC50: 637 µM
[1]; compound 324.2 pM
  FP signal: 2
[1]; compound 648.5 pM
  FP signal: 1
[1]; compound 1.297e-9 M
  FP signal: 2
[1]; compound 2.59399e-9 M
  FP signal: 3
[1]; compound 5.18799e-9 M
  FP signal: 3
[1]; compound 1.0376e-8 M
  FP signal: 3
[1]; compound 2.0752e-8 M
  FP signal: 3
[1]; compound 4.15039e-8 M
  FP signal: 3
[1]; compound 8.30078e-8 M
  FP signal: 2
[1]; compound 1.66016e-7 M
  FP signal: 5
[1]; compound 3.32031e-7 M
  FP signal: 4
[1]; compound 6.64062e-7 M
  FP signal: 3
[1]; compound 1.32813e-6 M
  FP signal: 4
[1]; compound 2.65625e-6 M
  FP signal: 5
[1]; compound 5.3125e-6 M
  FP signal: 6
[1]; compound 1.0625e-5 M
  FP signal: 4
[1]; compound 2.125e-5 M
  FP signal: 10
[1]; compound 4.25e-5 M
  FP signal: 18
[1]; compound 8.5e-5 M
  FP signal: 37
[1]; compound 0.00034 M
  FP signal: 117
[1]; compound 0.00068 M
  FP signal: 184
[1]; compound […]
  FP signal: 71
[2]; compound 324.2 pM
  FP signal: 2
[2]; compound 648.5 pM
  FP signal: 1
[2]; compound 1.297e-9 M
  FP signal: 2
[2]; compound 2.59399e-9 M
  FP signal: 3
[2]; compound 5.18799e-9 M
  FP signal: 3
[2]; compound 1.0376e-8 M
  FP signal: 3
[2]; compound 2.0752e-8 M
  FP signal: 3
[2]; compound 4.15039e-8 M
  FP signal: 3
[2]; compound 8.30078e-8 M
  FP signal: 2
[2]; compound 1.66016e-7 M
  FP signal: 5
[2]; compound 3.32031e-7 M
  FP signal: 4
[2]; compound 6.64062e-7 M
  FP signal: 3
[2]; compound 1.32813e-6 M
  FP signal: 4
[2]; compound 2.65625e-6 M
  FP signal: 5
[2]; compound 5.3125e-6 M
  FP signal: 6
[2]; compound 1.0625e-5 M
  FP signal: 4
[2]; compound 2.125e-5 M
  FP signal: 10
[2]; compound 4.25e-5 M
  FP signal: 18
[2]; compound 8.5e-5 M
  FP signal: 37
[2]; compound 0.00034 M
  FP signal: 117
[2]; compound 0.00068 M
  FP signal: 184
[2]; compound […]
  FP signal: 71
